# Source: ChEMBL document CHEMBL1201862, “PubChem BioAssay data set” (2004)
# Active and inactive are the calls of the source.
# Tests used:
# [1] = biological target: T1, Protein Tat (Human immunodeficiency virus type 1 group M subtype B (isolate HXB2)(HIV-1), UniProt P04608); type: functional;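 further: tat binding to TAR RNA read out by fluorescence polarization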
# T1 sequence (P04608 whole entry): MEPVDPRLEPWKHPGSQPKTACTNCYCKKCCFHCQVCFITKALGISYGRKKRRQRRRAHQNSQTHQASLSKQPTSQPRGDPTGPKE
# [2] = A cytotoxicity screen of small molecule inhibitors of the PhoP region in Salmonella typhi identified in the primary screen. [Related pubchem assays: 1850, 1864, 1985 ]; type: functional
# [3] = biological target: T2, DNA repair protein RAD52 homolog (Homo sapiens, UniProt P43351); type: functional, biochemical
# T2 sequence (P43351 whole entry): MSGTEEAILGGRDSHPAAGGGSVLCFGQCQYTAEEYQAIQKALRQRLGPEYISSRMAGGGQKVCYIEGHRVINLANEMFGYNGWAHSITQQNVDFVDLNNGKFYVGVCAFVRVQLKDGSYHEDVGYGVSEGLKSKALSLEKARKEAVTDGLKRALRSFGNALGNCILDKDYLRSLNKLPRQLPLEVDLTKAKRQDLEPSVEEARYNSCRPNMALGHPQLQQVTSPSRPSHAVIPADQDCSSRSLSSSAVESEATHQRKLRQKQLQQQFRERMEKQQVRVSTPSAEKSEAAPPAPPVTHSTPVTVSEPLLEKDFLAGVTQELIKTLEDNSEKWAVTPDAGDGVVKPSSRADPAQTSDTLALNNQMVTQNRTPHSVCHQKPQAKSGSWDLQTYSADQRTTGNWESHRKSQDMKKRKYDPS
# [4] = cytotoxicity toward DRD oncogenic fibroblasts, dose response, cell-based, non-viral oncogenic, luminescence (AID 1934); type: functional; conditions: Homo sapiens
# [5] = system: BJ; experiment: cytotoxicity toward BJ-TERT-LT-ST fibroblasts, dose response, cell-based, RAS-independent, luminescence (AID 1935); type: functional; conditions: Homo sapiens;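 further: BJ fibroblasts immortalized with TERT plus LT and ST oncogenes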
# [6] = system: BJ; experiment: cells; type: functional, cell-based; conditions: Homo sapiens
# [7] = system: BJ; experiment: cytotoxicity toward BJ-TERT fibroblasts, dose response, cell-based, RAS-independent, luminescence (AID 1933); type: functional; conditions: Homo sapiens
# [8] = biological target: Estrogen receptor beta (Homo sapiens, UniProt Q92731);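 further: recombinant ER-beta bound to coactivator SRC1 peptide in presence of estradiol agonist; inhibitors block coactivator peptide binding and lower the FRET signal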
# [9] = biological target: Paired box protein Pax-8 (Homo sapiens, UniProt Q06710); experiment: inhibitors of PAX8-driven TPO luciferase reporter, dose response, RMG-I cells, cherry-pick (AID 687027); type: functional, cell-based;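 further: luciferase reporter driven by Pax8 target thyroperoxidase promoter measured by SteadyGlo luminescence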
# [10] = cytotoxicity in OVCAR8 ovarian cancer cells, dose response, PAX8 project, cell-based, plate reader, dry powder samples (AID 743197); type: functional; conditions: OVCAR-8
# [11] = HeLa cell cytotoxicity, dose response, cytotoxicity control for MgcRacGAP inhibitor project (AID 624300); type: functional
# [12] = biological target: T3, Rac GTPase-activating protein 1 (Homo sapiens, UniProt Q9H0H5); experiment: MgcRacGAP GTPase-activating activity inhibitors, confirmation, biochemical, ADP Hunter fluorescence, primary and confirmatory (AID 624330); type: functional
# T3 sequence (Q9H0H5 whole entry): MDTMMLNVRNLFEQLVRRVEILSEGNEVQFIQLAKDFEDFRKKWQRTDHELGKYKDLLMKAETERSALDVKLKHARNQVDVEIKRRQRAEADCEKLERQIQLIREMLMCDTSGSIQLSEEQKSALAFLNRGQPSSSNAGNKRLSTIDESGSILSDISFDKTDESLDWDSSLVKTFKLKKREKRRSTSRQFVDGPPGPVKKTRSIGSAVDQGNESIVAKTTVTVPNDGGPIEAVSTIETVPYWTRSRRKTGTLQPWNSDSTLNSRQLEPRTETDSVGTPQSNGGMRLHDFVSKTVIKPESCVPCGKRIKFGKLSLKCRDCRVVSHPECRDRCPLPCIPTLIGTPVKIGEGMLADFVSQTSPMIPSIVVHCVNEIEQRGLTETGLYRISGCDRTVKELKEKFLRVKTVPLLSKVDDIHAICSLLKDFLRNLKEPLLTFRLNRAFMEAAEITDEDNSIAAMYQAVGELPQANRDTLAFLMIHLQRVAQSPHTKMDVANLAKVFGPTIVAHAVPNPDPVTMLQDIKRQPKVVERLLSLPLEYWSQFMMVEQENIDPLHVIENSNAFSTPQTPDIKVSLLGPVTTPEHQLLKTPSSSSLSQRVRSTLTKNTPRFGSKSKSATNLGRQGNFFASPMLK
# [13] = NIH-3T3 fibroblast cytotoxicity, dose response, cytotoxicity control, cell-based, fluorescence, Alamar Blue, secondary assay (AID 2327); type: functional;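 further: NIH-3T3 mouse fibroblasts cultured with fluconazole at 8 µg/mL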
# [14] = C. albicans growth with fluconazole, confirmation, fluorescence, retest (AID 2467); type: functional, cell-based
# [15] = biological target: T4, Heat shock factor protein 1 (Mus musculus, UniProt P38532); experiment: HSF1 potentiators in luciferase reporter cells, confirmation, cell-based, NIH3T3, luminescence, dose retest (AID 435004); type: functional;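 further: stress induced by proteasome inhibitor MG132 added 30 min after compound; luciferase reporter driven by HSF1 response element in NIH3T3 cells; actives raise luminescence as potentiators of the MG132 stress response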
# T4 sequence (P38532 whole entry): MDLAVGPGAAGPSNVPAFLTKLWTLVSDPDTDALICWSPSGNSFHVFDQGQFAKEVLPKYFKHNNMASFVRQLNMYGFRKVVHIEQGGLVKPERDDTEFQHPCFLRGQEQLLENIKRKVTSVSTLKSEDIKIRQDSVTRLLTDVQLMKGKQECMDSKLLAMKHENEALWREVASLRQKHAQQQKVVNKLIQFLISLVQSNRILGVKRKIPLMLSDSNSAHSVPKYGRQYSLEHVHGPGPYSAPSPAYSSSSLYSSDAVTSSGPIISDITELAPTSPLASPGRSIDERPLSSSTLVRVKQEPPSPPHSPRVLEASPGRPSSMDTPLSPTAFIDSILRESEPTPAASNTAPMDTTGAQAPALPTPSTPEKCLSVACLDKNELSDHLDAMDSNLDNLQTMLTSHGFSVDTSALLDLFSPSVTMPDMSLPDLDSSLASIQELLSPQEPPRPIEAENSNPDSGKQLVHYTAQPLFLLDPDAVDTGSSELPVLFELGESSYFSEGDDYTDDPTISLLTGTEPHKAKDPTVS
# [16] = biological target: T5, Zinc finger protein mex-5 (Caenorhabditis elegans, UniProt Q9XUB2); experiment: MEX-5/TCR-2 RNA interaction inhibitors, dose response, biochemical, C. elegans, fluorescence polarization (AID 1960)
# T5 sequence (Q9XUB2 whole entry): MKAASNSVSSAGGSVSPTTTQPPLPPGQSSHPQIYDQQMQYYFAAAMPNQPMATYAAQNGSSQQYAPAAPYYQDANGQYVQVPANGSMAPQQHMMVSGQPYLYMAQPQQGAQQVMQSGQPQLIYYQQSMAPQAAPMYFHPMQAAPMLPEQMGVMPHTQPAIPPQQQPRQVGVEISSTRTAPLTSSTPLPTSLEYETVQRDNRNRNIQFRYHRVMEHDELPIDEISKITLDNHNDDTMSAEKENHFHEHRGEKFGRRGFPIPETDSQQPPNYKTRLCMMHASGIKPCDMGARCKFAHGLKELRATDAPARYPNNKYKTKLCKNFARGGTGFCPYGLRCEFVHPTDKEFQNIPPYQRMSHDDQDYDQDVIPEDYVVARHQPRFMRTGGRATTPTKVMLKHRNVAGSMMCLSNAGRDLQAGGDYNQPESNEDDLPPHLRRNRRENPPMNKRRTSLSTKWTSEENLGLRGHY
# [17] = biological target: T6, RNA-binding protein pos-1 (Caenorhabditis elegans, UniProt G5EF15); experiment: inhibitors of POS-1/mex-3 RNA binding, dose response, biochemical, fluorescence polarization (AID 1964);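 further: purified POS-1 fused to maltose binding protein made in E. coli; potency of compounds blocking POS-1 binding to fluorescent RNA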
# T6 sequence (G5EF15 whole entry): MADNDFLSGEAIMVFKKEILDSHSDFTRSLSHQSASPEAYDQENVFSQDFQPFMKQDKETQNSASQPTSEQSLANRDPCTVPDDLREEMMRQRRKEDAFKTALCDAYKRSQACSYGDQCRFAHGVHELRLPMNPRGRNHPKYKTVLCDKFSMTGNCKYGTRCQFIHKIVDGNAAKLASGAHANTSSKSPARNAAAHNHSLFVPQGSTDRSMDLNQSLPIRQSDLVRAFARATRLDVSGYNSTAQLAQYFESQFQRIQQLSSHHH
# [18] = cells; type: functional, cell-based
# [19] = cells; type: functional, cell-based; remark: listed apart in the source
# [20] = biological target: T7, Histone-lysine N-methyltransferase NSD2 (Homo sapiens, UniProt O96028); type: biochemical
# T7 sequence (O96028 whole entry): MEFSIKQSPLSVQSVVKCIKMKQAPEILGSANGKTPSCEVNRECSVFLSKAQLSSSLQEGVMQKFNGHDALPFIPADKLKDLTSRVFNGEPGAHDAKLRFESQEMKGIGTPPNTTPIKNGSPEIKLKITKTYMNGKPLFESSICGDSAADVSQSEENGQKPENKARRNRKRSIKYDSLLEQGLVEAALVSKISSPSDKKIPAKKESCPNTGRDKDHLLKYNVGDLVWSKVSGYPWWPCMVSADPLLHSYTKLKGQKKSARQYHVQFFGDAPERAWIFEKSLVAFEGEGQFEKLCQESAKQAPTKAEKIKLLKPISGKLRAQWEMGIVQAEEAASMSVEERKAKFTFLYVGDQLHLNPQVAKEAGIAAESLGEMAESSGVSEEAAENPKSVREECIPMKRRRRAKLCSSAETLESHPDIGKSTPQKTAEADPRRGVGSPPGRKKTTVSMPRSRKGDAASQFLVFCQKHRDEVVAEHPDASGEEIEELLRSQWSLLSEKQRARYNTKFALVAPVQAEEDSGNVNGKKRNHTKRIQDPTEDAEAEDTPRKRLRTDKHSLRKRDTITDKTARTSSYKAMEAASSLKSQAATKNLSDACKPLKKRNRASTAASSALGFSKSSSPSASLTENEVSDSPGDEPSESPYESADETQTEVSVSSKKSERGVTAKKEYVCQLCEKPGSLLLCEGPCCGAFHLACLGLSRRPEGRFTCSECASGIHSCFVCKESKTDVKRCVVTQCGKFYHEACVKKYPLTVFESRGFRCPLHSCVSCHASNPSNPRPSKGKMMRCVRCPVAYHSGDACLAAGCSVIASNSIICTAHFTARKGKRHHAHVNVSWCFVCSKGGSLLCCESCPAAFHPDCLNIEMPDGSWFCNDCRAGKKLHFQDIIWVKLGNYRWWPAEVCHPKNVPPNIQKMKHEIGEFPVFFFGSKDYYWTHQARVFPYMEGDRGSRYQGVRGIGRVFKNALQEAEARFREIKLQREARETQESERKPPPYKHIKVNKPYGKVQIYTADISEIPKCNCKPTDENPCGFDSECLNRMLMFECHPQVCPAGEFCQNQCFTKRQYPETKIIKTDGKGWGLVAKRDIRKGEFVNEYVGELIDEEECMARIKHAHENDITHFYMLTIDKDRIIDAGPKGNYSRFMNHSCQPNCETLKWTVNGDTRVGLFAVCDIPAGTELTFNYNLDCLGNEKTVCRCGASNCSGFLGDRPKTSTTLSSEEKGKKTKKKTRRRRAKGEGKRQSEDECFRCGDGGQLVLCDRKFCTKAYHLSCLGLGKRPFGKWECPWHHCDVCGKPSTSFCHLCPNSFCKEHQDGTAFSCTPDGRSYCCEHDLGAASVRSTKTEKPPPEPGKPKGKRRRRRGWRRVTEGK
# [21] = biological target: T8, Carboxy-terminal domain RNA polymerase II polypeptide A small phosphatase 1 (Homo sapiens, UniProt Q9GZU7); experiment: inhibitors of CTDSP1, concentration-response testing, biochemical assay, absorbance-based, actives from ultra-high-throughput screening (AID 540297); type: functional
# T8 sequence (Q9GZU7 whole entry): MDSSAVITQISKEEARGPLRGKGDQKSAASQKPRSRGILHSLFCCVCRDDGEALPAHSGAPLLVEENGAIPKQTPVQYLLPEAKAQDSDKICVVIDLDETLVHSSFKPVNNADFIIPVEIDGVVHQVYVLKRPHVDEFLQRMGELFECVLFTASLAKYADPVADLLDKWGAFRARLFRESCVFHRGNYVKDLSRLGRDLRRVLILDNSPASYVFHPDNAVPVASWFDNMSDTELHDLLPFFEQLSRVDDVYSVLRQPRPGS
# Paired box protein Pax-8, sequence (Q06710 whole entry): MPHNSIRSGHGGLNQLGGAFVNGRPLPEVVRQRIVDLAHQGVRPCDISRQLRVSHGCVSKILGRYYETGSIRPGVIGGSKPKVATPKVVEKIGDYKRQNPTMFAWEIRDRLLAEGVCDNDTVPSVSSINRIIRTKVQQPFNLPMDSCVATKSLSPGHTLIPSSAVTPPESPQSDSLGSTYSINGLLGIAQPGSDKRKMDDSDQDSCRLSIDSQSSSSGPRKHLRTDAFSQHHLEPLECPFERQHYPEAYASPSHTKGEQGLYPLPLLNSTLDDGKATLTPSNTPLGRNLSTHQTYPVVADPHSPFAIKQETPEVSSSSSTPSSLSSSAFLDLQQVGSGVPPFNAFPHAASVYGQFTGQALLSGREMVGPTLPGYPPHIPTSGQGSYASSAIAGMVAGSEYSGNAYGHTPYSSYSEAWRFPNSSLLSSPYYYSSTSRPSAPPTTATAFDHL
# Estrogen receptor beta, sequence (Q92731 whole entry): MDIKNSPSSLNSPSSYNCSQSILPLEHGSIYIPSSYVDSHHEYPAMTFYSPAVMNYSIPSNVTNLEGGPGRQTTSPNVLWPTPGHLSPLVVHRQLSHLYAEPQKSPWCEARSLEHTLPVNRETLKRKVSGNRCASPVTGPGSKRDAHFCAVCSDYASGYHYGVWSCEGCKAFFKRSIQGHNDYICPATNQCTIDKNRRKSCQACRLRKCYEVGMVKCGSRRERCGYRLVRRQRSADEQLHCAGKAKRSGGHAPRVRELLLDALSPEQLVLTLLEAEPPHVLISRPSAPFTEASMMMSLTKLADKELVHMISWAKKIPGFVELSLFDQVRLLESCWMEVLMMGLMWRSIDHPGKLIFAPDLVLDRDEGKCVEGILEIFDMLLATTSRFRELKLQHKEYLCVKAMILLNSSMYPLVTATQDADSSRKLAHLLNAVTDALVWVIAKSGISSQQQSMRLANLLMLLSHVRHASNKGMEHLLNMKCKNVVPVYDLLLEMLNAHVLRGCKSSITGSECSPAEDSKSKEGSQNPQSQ
smiles,measurement,setting,value
O=C1[C@@H]2C(Cc3ccc(O)cc3)NC3(C(=O)Nc4ccc(F)cc43)[C@@H]2C(=O)N1c1ccc(F)cc1 (stereo partly specified),IC50,[1],> 100 µM (active)
[O-][n+]1c2ccccc2cc2ccccc21,EC50,[2],> 50 µM (active)
COc1ccc(N2CCc3c(C)nc4c(OC)cccc4c32)cc1,AC50,[3],12.3 µM (active)
same,EC50,[4],2.68 µM (active)
same,EC50,[5],1.26 µM (inconclusive)
same,EC50,[6],20 µM (inconclusive)
same,EC50,[7],3.48 µM (inconclusive)
Cc1nccn1-c1ncnc2sc3c(c12)CCCC3,IC50,[8],> 50 µM (not active)
C[C@@H]1CN([C@@H](C)CO)C(=O)Cc2cc(NC(=O)Nc3ccc(C(F)(F)F)cc3)ccc2O[C@H]1CN(C)C(=O)Nc1ccc(C(F)(F)F)cc1,AC50,[9],8.87 µM (active)
same,AC50,[10],> 70 µM (inactive)
Brc1ccc2nc(-c3c[nH]c4ccccc34)cn2c1,EC50,[2],> 50 µM (active)
O=C(C[n+]1ccc2ccccc2c1)c1ccc2ccc3ccccc3c2c1,AC50,[3],4.04 µM (active)
CCCCn1c(SCC(=O)c2ccc(O)c(O)c2)nc2ccsc2c1=O,CC50,[11],100 µM (active)
same,IC50,[12],49.7 µM (active)
same,EC50,[13],12.9 µM (active)
same,EC50,[14],> 38 µM (not active)
same,EC50,[15],31.7 µM (active)
CCn1cc(C(=O)NN)c(=O)c2cc(F)c(N3CCN(C)CC3)cc21,AC50,[3],15.7 µM (active)
C[C@H]1CCCCO[C@H](CN(C)C(=O)Nc2ccc(C(F)(F)F)cc2)[C@@H](C)CN([C@@H](C)CO)C(=O)c2cc(NS(=O)(=O)c3ccc(F)cc3)ccc2O1,AC50,[9],4.63 µM (active)
same,AC50,[10],> 70 µM (inactive)
COc1ccc(-c2nnc(SC(C)C(=O)Nc3nccs3)n2Cc2ccccc2)cc1OC (stereo unspecified),EC50,[2],> 50 µM (active)
O=C(O)c1cccc(-n2cccc2/C=C2/SC(=O)N(CC(=O)N3CCCC3)C2=O)c1,EC50,[16],> 300 µM (not active)
same,EC50,[17],> 300 µM (not active)
same,EC50,[18],> 350 µM (not active)
same,EC50,[19],> 350 µM (not active)
same,AC50,[20],> 20 µM (inactive)
same,IC50,[21],5.53 µM (active)
CN1CCN(CC(=O)Nc2nc(-c3c[nH]c4ccccc34)cs2)CC1,AC50,[3],11.6 µM (active)
CCOC(=O)c1c(CNc2ccncc2)n(C)c2cc(Br)c(O)cc12,AC50,[3],15.6 µM (active)
O=C(Nc1ccc(O)cc1C(=O)O)c1ccc2c(c1)C(=O)N(Cc1ccco1)C2=O,IC50,[8],13.8 µM (active)
CCc1ccc2nc(N3CCN(C)CC3)c(C#N)cc2c1,IC50,[1],> 100 µM (active)
